Assay results as given in PMC5011001 (Biochimica et biophysica acta, 2016).

Assays:
MAPK13 = details: read-out: IC50 [MAPK13]; cited from earlier work
MAPK14 = MAPK14 (Homo sapiens, UniProt Q16539); experiment: Differential scanning fluorimetry; type: binding
[1] = target: T1, activated (phosphorylated) MAPK13 (Homo sapiens, UniProt O15264); experiment: MAPK13 kinase inhibition assay; type: biochemical; details: for fold less potent (IC50) than compounds 58 and 61: MAPK13 IC50 comparison; for IC50 (MAPK13): steady-state enzyme inhibition, 3 μM ATP, stated as range in words
T1 sequence (O15264 1-365): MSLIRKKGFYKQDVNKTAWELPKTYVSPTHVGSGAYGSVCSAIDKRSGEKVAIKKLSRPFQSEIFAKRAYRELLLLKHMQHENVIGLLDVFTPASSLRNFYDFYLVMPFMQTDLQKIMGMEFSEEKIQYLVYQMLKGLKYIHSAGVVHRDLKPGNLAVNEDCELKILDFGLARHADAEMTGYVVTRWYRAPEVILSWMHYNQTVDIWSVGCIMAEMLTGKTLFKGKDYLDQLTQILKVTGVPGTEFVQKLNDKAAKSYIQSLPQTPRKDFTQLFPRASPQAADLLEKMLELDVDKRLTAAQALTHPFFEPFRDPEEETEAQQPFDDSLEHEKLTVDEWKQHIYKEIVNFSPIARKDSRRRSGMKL

[2] = target: T2, MAPK13 (unphosphorylated) (Homo sapiens, UniProt O15264); experiment: Differential scanning fluorimetry; type: binding
T2 sequence (O15264 1-365): T1 sequence (O15264 1-365)

Chain of MAPK14 (Q16539 whole entry, species assumed): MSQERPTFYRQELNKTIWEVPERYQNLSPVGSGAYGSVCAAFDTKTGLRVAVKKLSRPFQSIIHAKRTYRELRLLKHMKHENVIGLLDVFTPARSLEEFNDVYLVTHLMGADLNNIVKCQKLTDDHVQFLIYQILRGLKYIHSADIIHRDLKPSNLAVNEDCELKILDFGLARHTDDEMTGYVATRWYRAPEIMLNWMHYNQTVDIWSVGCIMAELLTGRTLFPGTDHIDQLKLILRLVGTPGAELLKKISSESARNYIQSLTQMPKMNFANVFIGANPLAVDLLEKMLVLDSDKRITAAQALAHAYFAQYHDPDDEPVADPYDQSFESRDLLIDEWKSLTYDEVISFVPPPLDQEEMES

Compound	IC50 (MAPK13) [µM]	ATm-MAPK14 (°C) (MAPK14)	fold less potent (IC50) than compounds 58 and 61 [1]	IC50 (MAPK13) [1]	Kd [2] [µM]
O=C(Nc1ccc(Oc2ccncc2)cc1)c1ccnc(N2CCOCC2)c1 [Compound 124]		−0.8± 0.3	over 800 fold		
Cc1cn(-c2cccc(C(=O)Nc3ccc(Oc4ccncc4)cc3)c2)cn1 [Compound 117, 3-(4-methyl-1H-imidazol-1-yl)-N-[4-(pyridin-4-xyloxy)phenyl] benzamide]			over 800 fold	micromolar range	
Cn1nc(C(C)(C)C)cc1NC(=O)Nc1ccc(Sc2ccncc2)cc1 [Compound 58, 1-(3-tert-butyl-1-methyl-1H-pyrazol-5-yl)-3-[4-(pyridin-4-ylsulfanyl)phenyl]urea]				nanomolar range	1.9 ± 0.3
